Results: the supplement of paper PMC10307832

Tests used:
Test in all cases: relative viability (nuclei count vs DMSO), 5 days (fraction); higher = more cells survive
201T = test system: 201T
Method in brief: (§1)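 Relative viability equals treated-well nuclei counts divided by vehicle-well nuclei counts. Counts came from 4× images of lung cancer cell lines grown in 1536-well plates for 5 days after pin-tool dosing on the day after seeding. Dosing used one drug alone or a fixed anchor-drug dose plus five library-drug doses (not always all listed) in √10 steps, and values are medians of duplicate plates.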

A-427 = test system: A-427
Method in brief: as §1

BEN = test system: BEN
Method in brief: as §1

COR-L 105 = test system: COR-L 105
Method in brief: as §1

COR-L23 = test system: COR-L23
Method in brief: as §1

EKVX = test system: EKVX
Method in brief: as §1

HARA = test system: HARA
Method in brief: as §1

HCC-15 = test system: HCC-15
Method in brief: as §1

HCC-44 = test system: HCC-44
Method in brief: as §1

HCC-827 = test system: HCC-827
Method in brief: as §1

LK-2 = test system: LK-2
Method in brief: as §1

NCI-H1437 = test system: NCI-H1437
Method in brief: as §1

NCI-H1666 = test system: NCI-H1666
Method in brief: as §1

NCI-H1792 = test system: NCI-H1792
Method in brief: as §1

NCI-H1975 = test system: NCI-H1975
Method in brief: as §1

NCI-H23 = test system: NCI-H23
Method in brief: as §1

NCI-H358 = test system: NCI-H358
Method in brief: as §1

NCI-H441 = test system: NCI-H441
Method in brief: as §1

NCI-H650 = test system: NCI-H650
Method in brief: as §1

NCI-H838 = test system: NCI-H838
Method in brief: as §1

SK-MES-1 = test system: SK-MES-1
Method in brief: as §1

SW 900 = test system: SW 900
Method in brief: as §1

Structure (SMILES): NC(=O)Nc1cc(-c2cccc(F)c2)sc1C(=O)N[C@H]1CCCNC1 [AZD7762] + CC(=O)c1c(C)c2cnc(Nc3ccc(N4CCNCC4)cn3)nc2n(C2CCCC2)c1=O [Palbociclib] (partner 0.5 µM)
- relative viability (201T; first compound 0.01 µM): 0.361
- relative viability (201T; first compound 0.03162 µM): 0.348
- relative viability (201T; first compound 0.1 µM): 0.361
- relative viability (201T; first compound 0.3162 µM): 0.386
- relative viability (201T; first compound 1 µM): 0.402
- relative viability (A-427; first compound 0.01 µM): 0.568
- relative viability (A-427; first compound 0.03162 µM): 0.552
- relative viability (A-427; first compound 0.1 µM): 0.595
- relative viability (A-427; first compound 0.3162 µM): 0.563
- relative viability (A-427; first compound 1 µM): 0.334
- relative viability (BEN; first compound 0.01 µM): 0.476
- relative viability (BEN; first compound 0.03162 µM): 0.483
- relative viability (BEN; first compound 0.1 µM): 0.436
- relative viability (BEN; first compound 0.3162 µM): 0.422
- relative viability (BEN; first compound 1 µM): 0.366
- relative viability (COR-L 105; first compound 0.01 µM): 0.414
- relative viability (COR-L 105; first compound 0.03162 µM): 0.415
- relative viability (COR-L 105; first compound 0.1 µM): 0.367
- relative viability (COR-L 105; first compound 0.3162 µM): 0.386
- relative viability (COR-L 105; first compound 1 µM): 0.372
- relative viability (COR-L23; first compound 0.01 µM): 0.307
- relative viability (COR-L23; first compound 0.03162 µM): 0.332
- relative viability (COR-L23; first compound 0.1 µM): 0.412
- relative viability (COR-L23; first compound 0.3162 µM): 0.261
- relative viability (COR-L23; first compound 1 µM): 0.117
- relative viability (EKVX; first compound 0.01 µM): 0.414
- relative viability (EKVX; first compound 0.03162 µM): 0.415
- relative viability (EKVX; first compound 0.1 µM): 0.372
- relative viability (EKVX; first compound 0.3162 µM): 0.445
- relative viability (EKVX; first compound 1 µM): 0.299
- relative viability (HARA; first compound 0.01 µM): 0.308
- relative viability (HARA; first compound 0.03162 µM): 0.245
- relative viability (HARA; first compound 0.1 µM): 0.254
- relative viability (HARA; first compound 0.3162 µM): 0.31
- relative viability (HARA; first compound 1 µM): 0.265
- relative viability (HCC-15; first compound 0.01 µM): 0.74
- relative viability (HCC-15; first compound 0.03162 µM): 0.738
- relative viability (HCC-15; first compound 0.1 µM): 0.802
- relative viability (HCC-15; first compound 0.3162 µM): 0.676
- relative viability (HCC-15; first compound 1 µM): 0.718
- relative viability (HCC-44; first compound 0.01 µM): 1.02
- relative viability (HCC-44; first compound 0.03162 µM): 0.923
- relative viability (HCC-44; first compound 0.1 µM): 0.965
- relative viability (HCC-44; first compound 0.3162 µM): 0.93
- relative viability (HCC-44; first compound 1 µM): 1.04
- relative viability (HCC-827; first compound 0.01 µM): 0.544
- relative viability (HCC-827; first compound 0.03162 µM): 0.469
- relative viability (HCC-827; first compound 0.1 µM): 0.486
- relative viability (HCC-827; first compound 0.3162 µM): 0.498
- relative viability (HCC-827; first compound 1 µM): 0.303
- relative viability (LK-2; first compound 0.01 µM): 0.6
- relative viability (LK-2; first compound 0.03162 µM): 0.779
- relative viability (LK-2; first compound 0.1 µM): 0.742
- relative viability (LK-2; first compound 0.3162 µM): 0.612
- relative viability (LK-2; first compound 1 µM): 0.572
- relative viability (NCI-H1437; first compound 0.01 µM): 0.357
- relative viability (NCI-H1437; first compound 0.03162 µM): 0.293
- relative viability (NCI-H1437; first compound 0.1 µM): 0.379
- relative viability (NCI-H1437; first compound 0.3162 µM): 0.41
- relative viability (NCI-H1437; first compound 1 µM): 0.35
- relative viability (NCI-H1666; first compound 0.01 µM): 0.609
- relative viability (NCI-H1666; first compound 0.03162 µM): 0.728
- relative viability (NCI-H1666; first compound 0.1 µM): 0.701
- relative viability (NCI-H1666; first compound 0.3162 µM): 0.565
- relative viability (NCI-H1666; first compound 1 µM): 0.65
- relative viability (NCI-H1792; first compound 0.01 µM): 0.725
- relative viability (NCI-H1792; first compound 0.03162 µM): 0.705
- relative viability (NCI-H1792; first compound 0.1 µM): 0.677
- relative viability (NCI-H1792; first compound 0.3162 µM): 0.731
- relative viability (NCI-H1792; first compound 1 µM): 0.785
- relative viability (NCI-H1975; first compound 0.01 µM): 0.519
- relative viability (NCI-H1975; first compound 0.03162 µM): 0.549
- relative viability (NCI-H1975; first compound 0.1 µM): 0.585
- relative viability (NCI-H1975; first compound 0.3162 µM): 0.352
- relative viability (NCI-H1975; first compound 1 µM): 0.357
- relative viability (NCI-H23; first compound 0.01 µM): 0.58
- relative viability (NCI-H23; first compound 0.03162 µM): 0.629
- relative viability (NCI-H23; first compound 0.1 µM): 0.73
- relative viability (NCI-H23; first compound 0.3162 µM): 0.456
- relative viability (NCI-H23; first compound 1 µM): 0.281
- relative viability (NCI-H358; first compound 0.01 µM): 0.182
- relative viability (NCI-H358; first compound 0.03162 µM): 0.141
- relative viability (NCI-H358; first compound 0.1 µM): 0.111
- relative viability (NCI-H358; first compound 0.3162 µM): 0.105
- relative viability (NCI-H358; first compound 1 µM): 0.0964
- relative viability (NCI-H441; first compound 0.01 µM): 0.242
- relative viability (NCI-H441; first compound 0.03162 µM): 0.26
- relative viability (NCI-H441; first compound 0.1 µM): 0.232
- relative viability (NCI-H441; first compound 0.3162 µM): 0.251
- relative viability (NCI-H441; first compound 1 µM): 0.256
- relative viability (NCI-H650; first compound 0.01 µM): 0.377
- relative viability (NCI-H650; first compound 0.03162 µM): 0.374
- relative viability (NCI-H650; first compound 0.1 µM): 0.403
- relative viability (NCI-H650; first compound 0.3162 µM): 0.38
- relative viability (NCI-H650; first compound 1 µM): 0.382
- relative viability (NCI-H838; first compound 0.01 µM): 0.27
- relative viability (NCI-H838; first compound 0.03162 µM): 0.198
- relative viability (NCI-H838; first compound 0.1 µM): 0.243
- relative viability (NCI-H838; first compound 0.3162 µM): 0.221
- relative viability (NCI-H838; first compound 1 µM): 0.221
- relative viability (SK-MES-1; first compound 0.01 µM): 0.339
- relative viability (SK-MES-1; first compound 0.03162 µM): 0.337
- relative viability (SK-MES-1; first compound 0.1 µM): 0.328
- relative viability (SK-MES-1; first compound 0.3162 µM): 0.279
- relative viability (SK-MES-1; first compound 1 µM): 0.2
- relative viability (SW 900; first compound 0.01 µM): 0.597
- relative viability (SW 900; first compound 0.03162 µM): 0.688
- relative viability (SW 900; first compound 0.1 µM): 0.583
- relative viability (SW 900; first compound 0.3162 µM): 0.444
- relative viability (SW 900; first compound 1 µM): 0.504
